Laboratory results as given in patent US7109175B1, “Specific steady-state R-type CA2+ channel blockers and use thereof” (Universite de Sherbrooke, priority 2000, dated 2006).
“Also recorded” adds a separate entry of the source.

What was measured:
[1] = system: TTX-sensitive fast Na^+ current; assay: Whole-cell voltage clamp, TTX-sensitive fast Na+ current in heart cells; format: cell-based, chick
Description: Single cells of different types in culture were prepared from biopsies of human, chick and rabbit. Known and accepted methods for the isolation of fast Na^+ current, T, L and R-type Ca^2+ channels as well as delayed outward K^+ current were used (Bkaily 1994, supra).
The compounds to be tested are added to the appropriate extracellular solution after recording a stable ionic current or normal steady-state level of […]. The effect of different concentrations of compounds are tested on the different type of current and [Ca]i of the different cell types. The effect of each concentration of the compounds in function of the time of exposure are then determined. Once the steady-state effect is reached, the second concentration is added, etc.
In one series of experiments (n=5), the effect of different concentrations of MV8608 (10^−11M to 10^−7M) on the TTX-sensitive fast Na^+ current were tested using the whole-cell voltage clamp technique and experimental conditions reported elsewhere (Bkaily et al., 1988, supra; 1993, supra).
In a series of experiments (n=5), we tested the effect of another MV compound MV8612 on the TTX-sensitive fast Na^+ current (INa) of embryonic chick heart cells using the whole-cell voltage clamp technique described above.

R-type Ca^2+ channel [2] = assay: Fura-2 [Ca]i, rabbit aortic vascular smooth muscle cells; format: cell-based; conditions: 10^−9M
Source text: This sustained increase of Ca^2+ induced by depolarization of the cell membrane or hormones such as PAF, ET-1 and bradykinin is due to the increase of Ca^2+ influx through the R-type Ca^2+ channels at the sarcolemmal membrane and/or the nuclear membrane (Bkaily G., 1994, supra; 1996, supra; 1997a–d, supra). Using Ca^2+ fluorescence probes Fura-2 or Fluo-3 and 2 and three-dimension Ca^2+ imaging techniques (Bkaily G., 1994, supra; 1996, supra; 1997a–d, supra), the effect of hormones and drugs could be easily tested. These two methods are used with single cells of different types as described above.
In another series of experiments we tested the effect of MV8608 (10^−9M) on R-type Ca^2+ channels stimulation-induced sustained increase of total intracellular Ca^2+ by sustained depolarization (FIGS. 15 to 19), by PAF (10^−9M) (FIGS. 16 to 19 and 21 to 22), by ET-1 (10^−9M) (FIGS. 16 and 19) and bradykinin (BK, 10^−6M) (FIGS. 20 and 21), in embryonic chick heart cells (FIGS. 15, 16, 19 and 20), 19-week-old human fetal heart cells (FIGS. 15, 17, 18 and 20), rabbit aortic vascular smooth muscle (VSM) cells (FIGS. 20 and 21), human aortic VSM cell-line (FIG. 23) and freshly isolated (FIG. 22) as well as in freshly isolated aortic endothelial cells (FIG. 22). […]

R-type Ca^2+ channel [3] = assay: Confocal Fluo-3 3-dimension measurement of [Ca]c and [Ca]n, chick heart cells and human aortic VSM cell line; format: cell-based; conditions: for sustained increase of [Ca]c and [Ca]n induced by high PAF: PAF 10^−7M; for sustained depolarization induced sustained increase of [Ca]c and [Ca]n: heart cells, FIG. 29 panel A; for prevention of sustained increase of [Ca]c and [Ca]n: chick heart cells and human aortic VSM cell line
[4] = system: human aortic vascular smooth muscle cell line; assay: Spontaneous proliferation of human aortic vascular smooth muscle cell line; format: cell-based; conditions: 10^−8M
mouse paw oedema = assay: Mouse paw oedema; format: in vivo, mice
Description: In this experiment (N=5 to 6 animals per group), the anti-oedemagenic action of compounds MV 8608 and MV 8612 against bradykinin and several mediators which are reported to be involved in the inflammatory processes, was evaluated. The procedures used to perform these experiments have been reported elsewhere (Neves et al., 1993, Eur. J. Pharmacol. 243:213–219; Campos et al., 1995, Br. J. Pharmacol. 114:1005–1013; Campos et al., 1996, Br. J. Pharmacol. 117:793–798; Eur. J. Pharmacol. 316:227–286). […] As reported previously, in rats treated […] prior to a systemic injection of LPS, both B1 and B2 kinin selective agonists caused marked oedema formation (FIGS. 37C and D (Campos et al., 1996, supra)).
When tested in mice, MV 8612 (40 to 160 nmol/paw) inhibited bradykinin and carrageenan-induced paw oedema in mice in a dose-dependent manner (FIGS. 46A and B).

pleurisy in mice = assay: Murine model of pleurisy; format: in vivo; conditions: for neutrophil cells, carrageenan pleurisy / total cells, carrageenan pleurisy: MV 8612 30 and 60, MV 8608 30, i.p.
Description: (§1) To assess further the anti-inflammatory action of MV 8612 and MV 8608, their effects against the inflammatory responses caused by several mediators of inflammation in a murine model of pleurisy were tested (Saleh et al., 1996, Br. J. Pharmacol. 118:811–819). In addition, both compounds were tested against the increase of vascular permeability caused by bradykinin in the rat skin (Neves et al., 1993b, Phytotherapy Research. 7:356–362).

[5] = system: vascular permeability in the rat skin; assay: Bradykinin-induced skin vascular permeability in rats; format: in vivo; conditions: for increase of vascular permeability caused by bradykinin: MV 8612 8 and 16, MV 8608 27 and 54, i.p.
Description: as §1

[6] = system: human lymphocyte proliferation; assay: Human lymphocyte proliferation in vitro; format: cell-based; conditions: for inhibition of human lymphocyte proliferation: MV 8612 0.02 to 0.32 M, MV 8608 14.5 to 116 M
Description: In a separate series of experiments, compounds MV 8612 and MV 8608 were tested to analyze whether they interfered with human lymphocyte proliferation “in vitro”. These experiments were carried out as reported previously (Moraes et al., 1996, Eur. J. Pharmacol. 312:333–339).

[7] = sustained depolarization and PAF 10^−7M
[8] = 40 to 160 nmol/paw co-injection

With C[C@]12CC[C@H](O)CC1=CC[C@@H]1[C@@H]2CC[C@]2(C)[C@H]3[C@@H]4OC[C@H]3O[C@@H](O)[C@]12O4 [MV8608, (15R, 16R, 20S)-14, 16:15,20:16,21-triepoxi-15,16-seco 14β, 17α-pregn-5-ene-3β, 15-diol] the “effect on TTX-sensitive fast Na+ current” value ([1]; 10^−11M to 10^−7M, single heart cell, n=5) was “no effect; also recorded: absence of the effect”, the “sustained increase of [Ca]i” value (R-type Ca^2+ channel [2]; BK 10^−6M and PAF 10^−9M) was “blockade” and the “cytosolic and nuclear Ca2+ sustained overload” value (R-type Ca^2+ channel [3]; 10^−7M, KCl 30 mM and PAF, nifedipine present) was “blocked both the cytosolic and nuclear Ca^2+ sustained overload”. The “prevention of depolarization-induced stimulation of R-type channel ([Ca]c, [Ca]n)” value (R-type Ca^2+ channel [3]; 10^−8 M and 10^−7 M) was “prevented the stimulation of the R-type Ca^2+ channel”, the “prevention of high PAF action” value (R-type Ca^2+ channel [3]; PAF 10^−7 M, 10^−9M) was “succeeded in preventing the high PAF action” and the “sustained increase of [Ca]c and [Ca]n induced by high PAF” value (R-type Ca^2+ channel [3]; MV8608 10^−6M) was “significantly decrease; also recorded: blocked”. For the same compound, the “sustained depolarization induced sustained increase of [Ca]c and [Ca]n” value (R-type Ca^2+ channel [3]) was “blocked completely”, the “prevention of sustained increase of [Ca]c and [Ca]n” value (R-type Ca^2+ channel [3]; [7]) was “preventive effect” and the spontaneous proliferation [4] was “significantly decreased”. The histamine-induced paw oedema (mouse paw oedema; 7.5 and 15, i.p.) was “dose-related inhibition”, the serotonin-induced paw oedema (mouse paw oedema; 7.5 and 15, i.p.) was “dose-related inhibition” and the bradykinin-induced paw oedema (mouse paw oedema; 7.5 and 15, i.p., 30 min prior) was “unaffected”. For the same compound, the “mononuclear cells influx, PAF pleurisy” value (pleurisy in mice; 30, i.p.) was “antagonised significantly”, the “plasma extravasation, PAF pleurisy” value (pleurisy in mice; 30, i.p.) was “antagonised significantly” and the “neutrophil cells, carrageenan pleurisy” value (pleurisy in mice) was “inhibited significantly”. The “total cells, carrageenan pleurisy” value (pleurisy in mice) was “inhibited significantly”, the “increase of vascular permeability caused by bradykinin” value [5] was “antagonised in a dose-related manner” and the “inhibition of human lymphocyte proliferation” value [6] was “graded inhibition”.
For COC1CC(OC2C(C)OC(O[C@H]3CC[C@@]4(C)C(=CC[C@@H]5[C@@H]4CC[C@]4(C)[C@H]6[C@@H]7OC[C@H]6O[C@@H](O)[C@]54O7)C3)CC2OC)OC(C)C1OC1CC(OC)C(OC2CC(OC)C(OC3OC(C)C(OC(C)=O)C(OC)C3OC(C)=O)C(C)O2)C(C)O1 (some centres unmarked) [MV8612], the “further decrease of INa amplitude” value ([1]; 10^−7M, embryonic chick heart cells) was “no further decrease”, the “decrease of INa amplitude” value ([1]; 10^−8M, embryonic chick heart cells) was 15% and the “effect on fast Na+ current” value ([1]; 10^−9M, embryonic chick heart cells) was “had no effect”. The “sustained increase of [Ca]i” value (R-type Ca^2+ channel [2]; sustained depolarization and ET-1 10^−9M) was “blockade”, the “sustained increase of [Ca]c and [Ca]n induced by high PAF” value (R-type Ca^2+ channel [3]; MV8612 10^−8M) was “blocked” and the “sustained depolarization induced sustained increase of [Ca]c and [Ca]n” value (R-type Ca^2+ channel [3]) was “blocked completely”. The “potency of blocking sustained increase of [Ca]c and [Ca]n, comparison” value (R-type Ca^2+ channel [3]; [7]) was “more potent blocker than MV8608”, the “potency of preventing stimulation of R-type channel, comparison” value (R-type Ca^2+ channel [3]; [7]) was “equipotent in preventing” and the “prevention of sustained increase of [Ca]c and [Ca]n” value (R-type Ca^2+ channel [3]; [7]) was “preventive effect”. The spontaneous proliferation [4] was “significantly decreased”, the histamine-induced paw oedema (mouse paw oedema; 7.5 and 15, i.p.) was “no significant effect” and the serotonin-induced paw oedema (mouse paw oedema; 7.5 and 15, i.p.) was “no significant effect”. The bradykinin-induced paw oedema (mouse paw oedema; 7.5 and 15, i.p., 30 min prior) was “dose-dependent inhibition”, the “cellulose sulphate-induced paw oedema” value (mouse paw oedema; 7.5 and 15, i.p., 30 min prior) was “dose-dependent inhibition” and the PAF-acether-induced oedema (mouse paw oedema; 40 to 160 nmol/paw) was “failed to affect significantly”. For the same compound, the serotonin-induced oedema (mouse paw oedema; 40 to 160 nmol/paw) was “failed to affect significantly”, the bradykinin-induced paw oedema (mouse paw oedema; [8]) was “inhibited” and the carrageenan-induced paw oedema (mouse paw oedema; [8]) was “inhibited”. For the same compound, the “plasma extravasation, carrageenan pleurisy” value (pleurisy in mice; 30 and 60, i.p., 1 h prior) was “significantly inhibited”, the “neutrophil cells, carrageenan pleurisy” value (pleurisy in mice) was “significantly inhibited” and the “total cells, carrageenan pleurisy” value (pleurisy in mice) was “significantly inhibited”. For the same compound, the “inflammatory response caused by PAF acether” value (pleurisy in mice; same range of dose, i.p.) was “did not affect significantly”, the “increase of vascular permeability caused by bradykinin” value [5] was “antagonised in a dose-related manner” and the “activity against bradykinin vascular permeability, comparison” value ([5]; MV 8612 versus MV 8608) was “more active than MV 8608”. The “inhibition of human lymphocyte proliferation” value [6] was “graded inhibition” and the “potency ratio MV 8612 versus MV 8608, lymphocyte proliferation” value ([6]; more potent) was “about 570 fold”.
